According to patent publication US8883782B2, “Spiro-tetracyclic ring compounds as beta-secretase modulators and methods of use” (Amgen Inc., priority 2010, dated 2014):
Read-outs that look alike come from different tables or passages of the source.

Columns and labels:
[1] = system: Aβ40 in conditioned medium of cells stably expressing Amyloid Precursor Protein (APP); experiment: In vitro BACE cell-based assay (Aβ40 in conditioned medium, sandwich ELISA)
Summary of the method: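 Quantification relied on pAb40/6E10 sandwich ELISA with Europium fluorescence counts, and IC50 was fitted versus concentration.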

[2] = target: Beta Secretase enzyme (BACE) (Homo sapiens, UniProt P56817); experiment: In vitro enzymatic BACE FRET (fluorescence resonance energy transfer) assay; format: biochemical
Chain of Beta Secretase enzyme (BACE) (P56817 46-501, species assumed): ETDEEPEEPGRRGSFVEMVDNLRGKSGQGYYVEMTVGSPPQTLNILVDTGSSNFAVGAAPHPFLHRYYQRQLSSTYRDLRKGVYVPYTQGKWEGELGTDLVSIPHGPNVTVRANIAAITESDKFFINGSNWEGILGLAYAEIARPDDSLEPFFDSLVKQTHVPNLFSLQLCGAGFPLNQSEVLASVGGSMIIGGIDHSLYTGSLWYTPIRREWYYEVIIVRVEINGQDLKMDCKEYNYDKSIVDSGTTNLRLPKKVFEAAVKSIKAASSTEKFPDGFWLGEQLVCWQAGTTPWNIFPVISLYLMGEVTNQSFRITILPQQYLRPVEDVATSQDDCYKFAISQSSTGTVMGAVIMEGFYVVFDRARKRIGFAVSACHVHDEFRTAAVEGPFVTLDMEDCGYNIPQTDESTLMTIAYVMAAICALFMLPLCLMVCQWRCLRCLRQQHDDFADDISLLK
Summary of the method: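 Enzyme activity was measured at pH 4.2 (0.05 M acetate, 10% DMSO final, 100 uM genapol) by cleavage of a 50 nM quenched fluorogenic peptide. After one hour, Tris was added to neutralise the pH and fluorescence was recorded.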

[3] = Homo sapiens, HEK293, average IC50, HEK cells, read-out: HEK cell assay
[4] = average IC50, enzyme assay, read-out: BACE 1 FRET assay
[5] = Homo sapiens, HEK293, average IC50, read-out: HEK cell assay

`CC(C)(F)C#Cc1cnc2c(c1)[C@]1(COC(N)=N1)c1cc(-c3cncnc3)c(F)cc1O2` [Example 717, (S)-8-fluoro-3-(3-fluoro-3-methylbut-1-ynyl)-7-(pyrimidin-5-yl)-5′H-spiro[chromeno[2,3-b]pyridine-5,4′-oxazol]-2′-amine] gave an IC50 [1, 3] of 0.212 µM and an IC50 [2, 4] of 0.0038 µM.
`NC1=N[C@@]2(CO1)c1cc(-c3ccc(F)nc3)ccc1Oc1c(F)cc(OCC3CCOCC3)cc12` [Example 258, (4S)-4′-fluoro-7′-(6-fluoro-3-pyridinyl)-2′-(tetrahydro-2H-pyran-4-ylmethoxy)spiro[1,3-oxazole-4,9′-xanthen]-2-amine] gave an IC50 [1, 5] of 0.0304 µM and an IC50 [2, 4] of 0.006 µM.
`COc1ccc(-c2cc3c(cn2)Oc2ccc(-c4cccnc4F)cc2[C@@]32COC(N)=N2)cc1F` [Example 533, (5S)-3-(3-fluoro-4-methoxyphenyl)-7-(2-fluoro-3-pyridinyl)spiro[chromeno[2,3-c]pyridine-5,4′-[1,3]oxazol]-2′-amine] gave an IC50 ([1]; Homo sapiens, HEK293, read-out: HEK cell assay (uM), average IC50, HEK cells) of 0.0235 µM and an IC50 ([2]; BACE 1 FRET assay (uM)) of 0.0014 µM.
`N#Cc1cccc(-c2ccc3c(c2)[C@@]2(COC(N)=N2)c2cc(N4CCOCC4)ncc2O3)c1` [Example 895, 3-((5S)-2′-amino-3-(4-morpholinyl)spiro[chromeno[2,3-c]pyridine-5,4′-[1,3]oxazol]-7-yl)benzonitrile] was tested, and the IC50 [1, 3] was 0.008 µM and the IC50 [2, 4] was 0.0024 µM.
`NC1=N[C@]2(CS1)c1cc(-c3cncnc3)c(F)cc1Oc1c(F)cc(N3CCOCC3)cc12` [Example 887, (4R)-3′,5′-difluoro-7′-(4-morpholinyl)-2′-(5-pyrimidinyl)spiro[1,3-thiazole-4,9′-xanthen]-2-amine] was tested, and the IC50 [1, 3] was at least 10 µM and the IC50 [2, 4] was 4.74 µM.
In the case of `NC1=N[C@@]2(CO1)c1cc(-c3cnccc3F)c(F)cc1Oc1ncc(C3=CCOCC3)cc12` [Example 646, (5S)-3-(3,6-dihydro-2H-pyran-4-yl)-8-fluoro-7-(4-fluoro-3-pyridinyl)spiro[chromeno[2,3-b]pyridine-5,4′-[1,3]oxazol]-2′-amine], the IC50 [1, 3] is reported as 0.016 µM and the IC50 [2, 4] is reported as 0.0022 µM.
Molecule `Cc1ccn(-c2cnc3c(c2)[C@]2(COC(N)=N2)c2cc(-c4cccnc4F)ccc2O3)n1` [Example 1021, (5S)-7-(2-fluoro-3-pyridinyl)-3-(3-methyl-1H-pyrazol-1-yl)spiro[chromeno[2,3-b]pyridine-5,4′-[1,3]oxazol]-2′-amine] has an IC50 [1, 5] of 0.119 µM and an IC50 [2, 4] of 0.0035 µM.
`N#Cc1ccncc1-c1ccc2c(c1)[C@@]1(COC(N)=N1)c1cc(Cl)ncc1O2` [Example 655, 3-((5S)-2′-amino-3-chlorospiro[chromeno[2,3-c]pyridine-5,4′-[1,3]oxazol]-7-yl)-4-pyridinecarbonitrile] gave an IC50 [1, 3] of 10 µM and an IC50 [2, 4] of 0.6 µM.
With `NC1=N[C@@]2(CO1)c1cc(-c3cnccn3)ccc1Oc1c(F)cc(OCC3CCOCC3)cc12` [Example 270, (4S)-4′-fluoro-7′-(2-pyrazinyl)-2′-(tetrahydro-2H-pyran-4-ylmethoxy)spiro[1,3-oxazole-4,9′-xanthen]-2-amine] the IC50 [1, 5] was 0.0336 µM and the IC50 [2, 4] was 0.0054 µM.
In the case of `NC1=N[C@@]2(CS1)c1cc(-c3cccnc3F)ccc1Oc1c(F)cc(N3CCOCC3)cc12` [Example 1069, (4S)-4′-fluoro-7′-(2-fluoro-3-pyridinyl)-2′-(4-morpholinyl)spiro[1,3-thiazole-4,9′-xanthen]-2-amine], the IC50 [1, 5] is reported as 0.01 µM and the IC50 [2, 4] is reported as 0.0006 µM.
`NC1=N[C@]2(CO1)c1cc(C3=CCCOC3)cc(F)c1Oc1ccc(-c3cncnc3)c(F)c12` [Example 1049, (4R)-7′-(5,6-dihydro-2H-pyran-3-yl)-1′,5′-difluoro-2′-(5-pyrimidinyl)spiro[1,3-oxazole-4,9′-xanthen]-2-amine] gave an IC50 [1, 5] of 0.085 µM and an IC50 [2, 4] of 0.0156 µM.
`COc1ccnc(F)c1-c1ccc2c(c1)[C@@]1(COC(N)=N1)c1cc(Cl)ncc1O2` [Example 680, (5S)-3-chloro-7-(2-fluoro-4-methoxy-3-pyridinyl)spiro[chromeno[2,3-c]pyridine-5,4′-[1,3]oxazol]-2′-amine] gave an IC50 [1, 3] of 0.806 µM and an IC50 [2, 4] of 0.0153 µM.
For `COC[C@H]1SC(N)=NC12c1cc(-c3cccnc3F)ccc1Oc1c(F)cc(OC)cc12` (stereo partly drawn) [Example 1092, (4S/R,5S)-4′-fluoro-7′-(2-fluoropyridin-3-yl)-2′-methoxy-5-(methoxymethyl)-5H-spiro[thiazole-4,9′-xanthen]-2-amine], the IC50 ([1]; average IC50, HEK cells, read-out: HEK cell assay) was 0.498 µM and the IC50 [2, 4] was 0.0057 µM.
Work on `Cc1ncc(-c2cc(F)c3c(c2)[C@]2(COC(N)=N2)c2cc(-c4ccc(F)nc4)ccc2O3)cn1` [Example 649, (4S)-4′-fluoro-7′-(6-fluoro-3-pyridinyl)-2′-(2-methyl-5-pyrimidinyl)spiro[1,3-oxazole-4,9′-xanthen]-2-amine] yielded an IC50 [1, 3] of 0.118 µM and an IC50 [2, 4] of 0.0198 µM.
`NC1=N[C@@]2(CO1)c1cc(-c3cccnc3F)ccc1Oc1c2cc(-c2ccccc2)nc1F` [Example 806, (S)-1-fluoro-7-(2-fluoropyridin-3-yl)-3-phenyl-5′H-spiro[chromeno[2,3-c]pyridine-5,4′-oxazol]-2′-amine] showed an IC50 ([1]; Homo sapiens, HEK293, average IC50, HEK cell assay, read-out: HEK cell assay) of 0.005 µM and an IC50 [2, 4] of 0.0015 µM.
For `Cc1ccn(-c2cc(F)c3c(c2)[C@]2(COC(N)=N2)c2cc(-c4cccnc4)ccc2O3)n1` [Example 633, (4S)-4′-fluoro-2′-(3-methyl-1H-pyrazol-1-yl)-7′-(3-pyridinyl)spiro[1,3-oxazole-4,9′-xanthen]-2-amine], the IC50 [1, 3] was 0.034 µM and the IC50 [2, 4] was 0.0039 µM.
Work on `CC#Cc1cncc(-c2cnc3c(c2)[C@]2(COC(N)=N2)c2cc(-c4cccnc4F)ccc2O3)c1` [Example 777, (5S)-7-(2-fluoro-3-pyridinyl)-3-(5-(1-propyn-1-yl)-3-pyridinyl)spiro[chromeno[2,3-b]pyridine-5,4′-[1,3]oxazol]-2′-amine] yielded an IC50 [1, 5] of 3.51 µM and an IC50 [2, 4] of 0.106 µM.
Molecule `N#Cc1cc(-c2ccc3c(c2)[C@@]2(CSC(N)=N2)c2cc(C4=CCOCC4)cnc2O3)ccc1F` [Example 764, 5-((5S)-2′-amino-3-(3,6-dihydro-2H-pyran-4-yl)spiro[chromeno[2,3-b]pyridine-5,4′-[1,3]thiazol]-7-yl)-2-fluorobenzonitrile] has an IC50 [1, 5] of 0.006 µM and an IC50 [2, 4] of 0.0006 µM.
Work on `COCC1SC(N)=NC12c1cc(-c3cccnc3F)ccc1Oc1c(F)cc(OC)cc12` [Example 1089, (4S/R,5S)-4′-fluoro-7′-(2-fluoropyridin-3-yl)-2′-methoxy-5-(methoxymethyl)-5H-spiro[thiazole-4,9′-xanthen]-2-amine] yielded an IC50 ([1]; average IC50, read-out: HEK cell assay) of 0.923 µM and an IC50 [2, 4] of 0.0033 µM.
With `NC1=N[C@@]2(CS1)c1cc(-c3cccnc3F)ccc1Oc1c(F)cc(C3=CCOCC3)cc12` [Example 791, (4S)-2′-(3,6-dihydro-2H-pyran-4-yl)-4′-fluoro-7′-(2-fluoro-3-pyridinyl)spiro[1,3-thiazole-4,9′-xanthen]-2-amine] the IC50 [1, 5] was 0.01 µM and the IC50 [2, 4] was 0.0001 µM.
With `CC1(C)CC(c2cnc3c(c2)[C@@]2(COC(N)=N2)c2c(ccc(-c4cccnc4F)c2F)O3)=CCO1` [Example 351, (5S)-3-(2,2-dimethyl-3,6-dihydro-2H-pyran-4-yl)-6-fluoro-7-(2-fluoro-3-pyridinyl)spiro[chromeno[2,3-b]pyridine-5,4′-[1,3]oxazol]-2′-amine] the IC50 [1, 5] was 0.854 µM and the IC50 [2, 4] was 0.389 µM.
Molecule `CC(C)(C)COc1ccc2c(c1)C1(COC(N)=N1)c1cc(C3CCCOC3)ccc1O2` [Example 911, (4S)-2′-(2,2-dimethylpropoxy)-7′-((3R)-tetrahydro-2H-pyran-3-yl)spiro[1,3-oxazole-4,9′-xanthen]-2-amine, (4S)-2′-(2,2-dimethylpropoxy)-7′-((3S)-tetrahydro-2H-pyran-3-yl)spiro[1,3-oxazole-4,9′-xanthen]-2-amine] has an IC50 [1, 3] of 1.29 µM and an IC50 [2, 4] of 0.0192 µM.
`NC1=N[C@@]2(CO1)c1cc(-c3c(F)ccnc3F)ccc1Oc1cnc([C@@H]3CCCOC3)cc12` [Example 912, (5S)-7-(2,4-difluoro-3-pyridinyl)-3-((3S)-tetrahydro-2H-pyran-3-yl)spiro[chromeno[2,3-c]pyridine-5,4′-[1,3]oxazol]-2′-amine] gave an IC50 [1, 3] of 0.338 µM and an IC50 [2, 4] of 0.0251 µM.
For `NC1=N[C@@]2(CO1)c1cc(-c3cncc(F)c3)ccc1Oc1c(F)cc(N3CCOCC3)cc12` [Example 277, (4S)-4′-fluoro-7′-(5-fluoro-3-pyridinyl)-2′-(4-morpholinyl)spiro[1,3-oxazole-4,9′-xanthen]-2-amine], the IC50 [1, 5] was 0.0064 µM and the IC50 [2, 4] was 0.0015 µM.
`NC1=N[C@@]2(CO1)c1cc(-c3c(F)ccnc3F)ccc1Oc1cnc(C3CCOCC3)cc12` [Example 616, (5S)-7-(2,4-difluoro-3-pyridinyl)-3-(tetrahydro-2H-pyran-4-yl)spiro[chromeno[2,3-c]pyridine-5,4′-[1,3]oxazol]-2′-amine] showed an IC50 [1, 3] of 0.176 µM and an IC50 [2, 4] of 0.017 µM.
In the case of `CC#Cc1cncc(-c2ccc3c(c2)[C@@]2(CSC(N)=N2)c2cc(-c4ccnc(F)c4)cnc2O3)c1` [Example 781, (5S)-3-(2-fluoro-4-pyridinyl)-7-(5-(1-propyn-1-yl)-3-pyridinyl)spiro[chromeno[2,3-b]pyridine-5,4′-[1,3]thiazol]-2′-amine], the IC50 [1, 5] is reported as 0.003 µM and the IC50 [2, 4] is reported as 0.0003 µM.
`NC1=N[C@]2(CO1)c1cc(-c3cccnc3F)ccc1Oc1c2cc(C#Cc2cccnc2)nc1F` [Example 747, (5R)-1-fluoro-7-(2-fluoro-3-pyridinyl)-3-(3-pyridinylethynyl)spiro[chromeno[2,3-c]pyridine-5,4′-[1,3]oxazol]-2′-amine] showed an IC50 [1, 5] of at least 10 µM and an IC50 [2, 4] of 1.12 µM.
For `CC#Cc1cncc(-c2ccc3c(c2)[C@@]2(COC(N)=N2)c2cc(C#CC(C)(C)O)cnc2O3)c1` [Example 945, 4-((5S)-2′-amino-7-(5-(1-propyn-1-yl)-3-pyridinyl)spiro[chromeno[2,3-b]pyridine-5,4′-[1,3]oxazol]-3-yl)-2-methyl-3-butyn-2-ol], the IC50 [1, 3] was 0.002 µM and the IC50 [2, 4] was 0.0008 µM.
